What was measured:
Format in all cases: cell-based
[1] = tested on: Human Aortic Smooth Muscle Cells (HASMC); experiment: ATP production in HASMC, Luciferin-Luciferase ATP assay; settings: 0-20 μg/ml, 24 h, in words
Description: We have investigated the effect of Q10 on ATP production in Human Aortic Smooth Muscle Cells (HASMC). This cell line was chosen for the study based on its ability to produce ATP at levels detectable by the Luciferin-Luciferase ATP assay. We also studied the effect of The composition comprising about 0.001% to about 60% (w/w) Coenzyme Q10 on Muscle Cell proliferation.
(§1) D-(+)-Glucose at 10 mM (Peiro et al., Brit. Jour. of Pharmacology 133: 967-974 (2001)) was used as an energy substrate for the production of ATP. The wells of the 6-well plate were incubated with 0-20 μg/ml of CoQ10, 1 μg and 20 μg/ml CoQ10, or 1 μg and 20 μg/ml of the Vehicle of Coenzyme Q10, all in Medium 231. The well plates were incubated at 37° C. and 5% CO2 for specified experimental periods. Medium 231 contains 4.6 mM Glu originally, thus only an additional 5.4 mM added to medium (Dr. Gary D. Shipley, Cascade Biologics, Portland, Oreg.).
After incubation, the medium was removed and replaced with cold (4° C.) 1% w/v Trichloroacetic Acid (TCA) as the lysis buffer. This buffer causes almost instantaneous inhibition of ATPases (Kangas et al., Med Biol 62: 338-343 (1984)). The wells were incubated with TCA at room temperature for 5 min with gentle swirling. […]
HASM Cells were incubated at 37° C. and 5% CO2 with 0-20 μg/ml Coenzyme Q10. […] Samples were then taken for quantification of ATP using the Luciferin-Luciferase ATP Assay. […]

[2] = tested on: Human Aortic Smooth Muscle Cells (HASMC); experiment: HASMC proliferation, Coulter cell count; settings: for Cell number: 24 h incubation, HASMC; for % Diff vs. Ctrl (24 hr): HASMC cell number
Description: At approximately 80% confluency, the cells were subcultured using Trypsin-EDTA to detach the cells and Defined Trypsin Inhibitor, DTI to neutralize the cell suspension before centrifugation at 2500 RPM for 8 minutes. The supernatant was aspirated and discarded. The resultant cell pellet was then resuspended in fresh Medium 231. A cell count was performed using a hemocytometer before seeding the experimental 6-well plates at 200,000 cells/well.
Q10 was dissolved in ethanol and the solution was diluted with Medium 231 to the required concentrations. The Vehicle used in preparing the composition comprising about 0.001% to about 60% (w/w) Coenzyme Q10 was composed of MCT, BHT, Glycerol, and Sodium Phosphate buffered to pH 7.2 and subjected to sonication, then diluted with Medium 231 to experimental concentrations.
as §1
The well-plates were decanted to empty the wells of the reagents and any residue was aspirated carefully with an electronic pipettor. 0.5 ml Trypsin-EDTA was added to each well for 5-7 minutes to aid detachment. Upon complete detachment as determined under a microscope, 0.5 ml Medium 231 was added to the resultant cell suspension to neutralize the Trypsin. 0.5 ml of this cell suspension was taken for reading in a Coulter cell counter.
In FIG. 2, HASM Cells were incubated at 37° C. and 5% CO2 with 0-20 μg/ml Coenzyme Q10, The composition comprising about 0.001% to about 60% (w/w) Coenzyme Q10, and the Vehicle(V) used in The composition comprising about 0.001% to about 60% (w/w) Coenzyme Q10. The 6-well plates were incubated for 24 h in Medium 231. After treatment with Trypsin-EDTA and gentle scraping, cells were neutralized with Medium 231 and mixed by pipetting. Samples were then taken for quantification using a Coulter cell counter. (*Significant compared to Ctrl, P<0.05; One-way ANOVA and Dunnett's).

[3] = tested on: Human neonatal fibroblasts (nFIB); experiment: In vitro incisional wound model, fibroblast migration; settings: versus control, in words
Description: (§2) The proliferation and migration of keratinocytes and fibroblasts are paramount to the restoration of the cutaneous architecture. […] To test the effect of Q10 on neonatal fibroblasts and keratinocytes, an in vitro incisional wound model was employed. Cells were seeded in 6-well tissue culture plates with supplemented media and incubated for 48 hours to facilitate a 90% confluency level prior to experimentation. A cross-shaped “wound” gap was made among the near confluent monolayer of cells in the center of each well. Detached cells were then washed off with medium. Each well was then replenished with medium with or without Q10. […] Cell migration was quantified by time and percentage of “wound” gap covered by cells that migrated into the gap field. The percentage of gap filled (PGf) was calculated as PGf=(1−At/A0)×100, where At is the gap area at time t, and A0 is the gap area at time 0. […]
(§3) Human neonatal fibroblasts (nFIB) and human neonatal keratinocytes (SC-KC) were grown to ˜90% confluency in T-75 flasks at which time they were trypsinized and seeded into 6-well tissue culture plates. […] Cell migration was quantified by time and percentage of “wound” gap covered by cells that migrated into the gap field. The percentage of gap filled (PGf) was calculated as PGf=(1−At/A0)×100, where A(t) is the gap area at time t, and A(0) is the gap area at time 0. […]

[4] = tested on: human neonatal keratinocytes (SC-KC); experiment: In vitro incisional wound model, keratinocyte migration; settings: versus control, in words
Description: as §2, §3

[5] = tested on: Human neonatal fibroblasts (nFIB); experiment: Fibroblast proliferation; settings: in words
From the text: (§4) FIGS. 7-10 show the results obtained.

[6] = tested on: human neonatal keratinocytes (SC-KC); experiment: Keratinocyte proliferation; settings: in words
From the text: as §4

Compound: COC1=C(OC)C(=O)C(C/C=C(\C)CC/C=C(\C)CC/C=C(\C)CC/C=C(\C)CC/C=C(\C)CC/C=C(\C)CC/C=C(\C)CC/C=C(\C)CC/C=C(\C)CCC=C(C)C)=C(C)C1=O [Q-10, 2,3-dimethoxy-5-methyl-6-decaprenyl-1,4-benzoquinone]
- Effect on ATP production [1]: increases ATP production
- Effect on ATP production ([1]; listed as Coenzyme Q10): stimulatory effect on ATP production
- Cell number ([2]; 1.0 μg/ml): 42.4 10^4
- % Diff vs. Ctrl (24 hr) ([2]; 1.0 μg/ml): 65.1%
- Cell number ([2]; 20.0 μg/ml): 63.1 10^4
- % Diff vs. Ctrl (24 hr) ([2]; 20.0 μg/ml): 145.6%
- Fibroblast migration (rate of gap coverage) [3]: statistically significant increase in the rate of gap coverage
- Fibroblast migration (rate of gap coverage) ([3]; listed as coenzyme Q10): enhances the migration and proliferation
- Keratinocyte migration (rate of gap coverage) [4]: statistically significant increase in the rate of gap coverage
- Keratinocyte migration (rate of gap coverage) ([4]; listed as coenzyme Q10): enhances the migration and proliferation
- Fibroblast proliferation [5]: enhances the migration and proliferation
- Keratinocyte proliferation [6]: enhances the migration and proliferation

Reference: patent US10583098B2, “Topical co-enzyme Q10 formulations and treatment of pain, fatigue and wounds” (priority 2006, dated 2020)
